The nature of data set [1]: Pharmacokinetic (PK) study after IP injection. Conditions: C57BL/6, mouse, in vivo, I.P., 5 mg/kg.
A further data set deals with C57BL/6 mice. Description: LPS neuroinflammation model. Type of data set: in vivo. The note with it: 2 or 5 mg/kg IP daily for 4 days, LPS 5 mg/kg on Day 2. On the procedure: All experiments were carried out with 10-week-old female C57BL/6 mice (20–25 g). The animals were divided into six experimental groups of three mice in each experiment: Group 1, treated with vehicle; Group 2, treated with SB26019 {2 mg/kg body weight (mpk)}; Group 3, treated with SB26019 (5 mpk); Group 4, treated with LPS and vehicle; Group 5, treated with LPS and SB26019 (2 mpk); and Group 6, treated with LPS and SB26019 (5 mpk). SB26019 (2 or 5 mpk) or vehicle {distilled water containing 5% DMSO and 40% polyethylene glycol 400 (TCI; N0433)} was administered with IP injection daily for 4 days. Five mpk of LPS (Sigma; L2880) in PBS was administered by IP injection on Day 2 for a single challenge. All mice were sacrificed on Day 5.
Mice were anesthetized with a mixture of alfaxalone and xylazine (5:1 ratio) and transcardially perfused with cold PBS. Mouse brains were harvested and fixed using 10% NBF (Sigma; HT501128) for 2 h. After washing with PBS for 30 min three times, fixed brains were embedded in OCT compound (Leica; #3801480) for frozen coronal sectioning at a thickness of 7 μm. […]
The perfused brains were minced with a 10 T scalpel blade. […] Microglia in the interphase between 70% and 37% Percoll solution was transferred and washed with HBSS media. mRNA was extracted from the microglia and analyzed with qPCR. […]

For data set [2], the system named is NF-κB signaling pathway in BV-2 microglial cells. Nature of the data set: qPCR of NF-κB downstream genes after LPS. The data set is classed as cell-based, murine. Conditions: BV-2 cells, dose-dependent. The procedure:
After cell lysis with RLT buffer (Qiagen), RNA was extracted using the RNAeasy PLUS Mini Kit (Qiagen; #74136). The resulting cDNA was generated using the AccuPower CycleScript RT PreMix (dT20) kit (Bioneer; K2044) on a C1000 Touch Thermal Cycler (Bio-Rad; #1841000). qPCR was performed using a KAPA SYBR® FAST qPCR Master Mix (2×) Universal Kit (Kapa; KK4605) on a StepOne Real-Time PCR system (Applied Biosystems; #4376357). The cycling threshold value of the endogenous control gene GAPDH was subtracted from the cycling threshold value of each target gene to calculate the shift in cycling threshold (ΔCT). […] The primer sequence information for this analysis is shown in Supplementary Table 3.
NF-κB is a central mediator that induces proinflammatory cytokines, including TNF-α, IL-1β, IL-6, and chemokines. […] The expression level of the proinflammatory cytokine TNF-α was also monitored with SB26019 treatment.
Fig. 2 SB26019 has anti-inflammatory activity via the accumulation of tubulin monomers. […]
A general note: In qPCR the cycle at which signal appears reflects the starting amount.

The test system of data set [3] is α-tubulin monomers in RAW264.7 cells. Nature of the data set: Tubulin monomer/polymer isolation and western blot. The note with it: 10 μM for 6 h. Type of data set: cell-based, murine.
Experimental: To separate soluble tubulin monomers from insoluble tubulin polymers, cells were washed very gently with PBS and incubated for 10 min at room temperature with a microtubule-stabilizing buffer {10% Tris–HCl (pH 6.8) (Acros; #77-86-1), 10% glycerol (Biosesang; GR1018-500-00), 1 mM EGTA (Sigma; E3889), 1 mM MgSO4 (Sigma; M2773), 0.1 mM EDTA (Acros; #409971000), and 1× protease inhibitor cocktail} containing additional 0.1% Triton X-100 (Sigma; T8787). The remaining insoluble tubulin polymers on the culture dish were scraped with microtubule-stabilizing buffer containing an additional 0.5% SDS (Sigma; L3771).

For the molecule `COc1ccc2c(c1O)OC(C)(C)C=C2c1cccc2c1oc1ccccc12` [Compound 8], in data set [1], the AUC(0-inf) stood at 1790 ± 310 ng·h/mL, the AUC(0-t) came out at 1770 ± 300 ng·h/mL, the Cmax worked out at 1200 ± 260 ng/mL and the Tmax is 10.2 min. The molecule also gave a half-life in data set [1] of 214 ± 37.2 min. Besides, in the data set on C57BL/6 mice, the “Microglial activation (Iba-1-positive region of the brain)” value is “efficiently regulated microglial activation in all brain regions in a dose-dependent manner”; the “Transcription levels of cytokines and chemokines in brain microglia (qPCR)” value was “efficiently inhibited the LPS-mediated upregulation of cytokines and chemokines”. Also, the “mRNA of inflammatory marker genes (Ccl2, Cxcl10, Il-1β, Il-6, Nos2, Tnf)” value in data set [2] is given as “suppressed the production of inflammatory marker genes”. In data set [3], the “Total α-tubulin monomers” value was “increased the total α-tubulin monomers”.

What is called AUC(0-inf) is total exposure, with the tail of the curve extrapolated. Higher therefore signals high exposure. The AUC(0-t) is exposure summed from dosing to a finite time, without extrapolation to infinity. Read a low AUC(0-t) as low exposure. By Cmax is commonly meant the peak of the concentration-time curve. The term Tmax denotes the time at which the peak concentration occurs. As a reminder, the half-life is the time in which the quantity being followed falls by half. Lower therefore signals rapid decline.

The values are drawn from paper PMC9743128, “Phenotype-based screening rediscovered benzopyran-embedded microtubule inhibitors as anti-neuroinflammatory agents by modulating the tubulin–p65 interaction” (Experimental & Molecular Medicine, 2022).
